Measurements as given in paper PMC4313372, “MHJ_0461 is a multifunctional leucine aminopeptidase on the surface of Mycoplasma hyopneumoniae” (Open Biology, 2015).

How the values were obtained:
[1] = target: T1, rMHJ_0461 (Mesomycoplasma hyopneumoniae, UniProt Q4A9M4); assay: fluorogenic aminopeptidase assay, leucine-AMC, […] min preincubation; format: biochemical; parameters: gene pepA; multimers of about 500 and 800 kDa; settings: read-out: % inhibition at 1 mM
[2] = target: T1, rMHJ_0461; parameters: gene pepA; settings: 50 uM substrate, 5 mM Mn2+, pH 7.2, 37 C
[3] = target: recombinant MHJ_0461 (Mycoplasma hyopneumoniae strain J); assay: native gel or EMSA; Blue Native PAGE of purified rMHJ_0461; complexes identified by LC-MS/MS of tryptic peptides

`CC(C)C[C@@H](N)[C@H](O)C(=O)N[C@H](C(=O)N[C@H](C(=O)N[C@@H](CC(=O)O)C(=O)O)C(C)C)C(C)C` [amastatin] showed an inhibition at 1000 µM [1] of 69%.
`CC(C)C[C@H](NC(=O)[C@@H](O)[C@H](N)Cc1ccccc1)C(=O)O` [bestatin] gave an inhibition at 1000 µM [1] of 99%.
With `CSCC[C@H](N)C(=O)Nc1ccc2c(C)cc(=O)oc2c1` [methionine-AMC] the “fluorogenic AMC release assay” value [2] was “leucine > methionine > phenylalanine > arginine > alanine > isoleucine > glycine > valine”.
For recombinant MHJ_0461 (enzyme), the stoichiometry N [3] was greater than 10 subunits.
